Reference: US20260137820A1, “TRIFUNCTIONAL COMPOUND AND USE THEREOF” (PEKING UNIVERSITY, priority 2022, published 2026)
*1 amine or outer side, *2 acyl side, *3 side chain or, on linkers, in order; H or OH if unused. Where a SMILES comes first, the peptide text is derived from it. Side-chain parts run from the residue outwards. [ ]: non-standard residue; d: D form. The star is where a group is joined. DOTA = O=C(O)CN1CCN(CC(=O)O)CCN(CC(=O)*)CCN(CC(=O)O)CC1; X1 = O=C([C@@H](Cc1ccc(OS(=O)(=O)F)cc1)N[*:1])[*:2]; 2Nal = N[C@@H](Cc1ccc2ccccc2c1)C(=O)O; dNMeOrn = CN[C@H](CCCN)C(=O)O; 4Amb = NCc1ccc(C(=O)O)cc1

Assays:
Daudi tumor = assay: PET/CT imaging in tumor mouse model with high CXCR4 expression; type: in vivo; settings: 7.4-18.5 MBq i.v., 2 hours, p<0.05
Protocol: (§1) All PET/CT scans were carried out on Mediso nanoScan® PET 122S small animal PET/CT.
(§2) A certain number (n=4) of Daudi tumor mice (for the construction method, see the method in PET Imaging of CXCR4 Receptors in Cancer by a New Optimized Ligand, published by Oliver Demmer et al.) were taken and intravenously injected at specified time points with 7.4-18.5 MBq of ^68Ga-pentixafor (as a control, the labeled precursor is readily commercially available, and the structure is specifically disclosed) and ^68Ga-CXCR4-CB-03 molecules (Note: the injection of the control and investigation molecules was separated apart by at least 12 hours until the previous ^68Ga molecule essentially completely decayed and was essentially completely metabolized). Imaging was carried at the time point of 2 hours, and the SUVmax value in tumor was obtained by a software.

AR42J tumor = assay: PET/CT imaging in tumor mouse model with high SSTR2 expression; type: in vivo; settings: 7.4-18.5 MBq i.v., 2 hours, p<0.05
Protocol: as §1
as §2, with “AR42J” for “Daudi”, “Combination radionuclide therapy using ^177Lu-and ^90Y-labeled somatostatin analogs,” for “PET Imaging of CXCR4 Receptors in Cancer by a New Optimized Ligand,”, “Marion de Jong” for “Oliver Demmer”, “^68Ga-DOTATATE” for “^68Ga-pentixafor”, “^68Ga-SSTR2-CB-02” for “^68Ga-CXCR4-CB-03”

CN1C(=O)[C@@H](Cc2ccc(OS(=O)(=O)F)cc2)NC(=O)CNC(=O)[C@H](Cc2ccc3ccccc3c2)NC(=O)[C@H](CCCNC(=N)N)NC(=O)[C@H]1CCCNC(=O)c1ccc(CNC(=O)CN2CCN(CC(=O)O)CCN(CC(=O)O)CCN(CC(=O)O)CC2)cc1 [^68Ga-CXCR4-CB-03, metal not drawn] (cyclo([2Nal]G[X1][dNMeOrn]([4Amb-DOTA])R))
drug tumor uptake (SUVmax) compared with ^68Ga-pentixafor (Daudi tumor): significantly higher

C[C@@H](O)[C@H](NC(=O)[C@@H]1CSSC[C@H](NC(=O)[C@@H](Cc2ccccc2)NC(=O)CN2CCN(CC(=O)O)CCN(CC(=O)O)CCN(CC(=O)O)CC2)C(=O)N[C@@H](Cc2ccc(OS(=O)(=O)F)cc2)C(=O)N[C@H](Cc2c[nH]c3ccccc23)C(=O)N[C@@H](CCCCN)C(=O)N[C@@H]([C@@H](C)O)C(=O)N1)C(=O)O [^68Ga-SSTR2-CB-02, metal not drawn]
drug tumor uptake (SUVmax) compared with ^68Ga-DOTATATE (AR42J tumor): significantly higher
